{
  "source": "a compilation of properties of binary mixtures (doi:10.1016/j.molliq.2017.06.010)",
  "test": "xn = mol fraction of the nth substance listed",
  "conditions": "303.15 K, 100 kPa",
  "data": [
    {"smiles": "CCC(=O)[O-].OCC[NH2+]c1ccccc1", "note": "+ O", "values": [
      {"measurement": "electrical conductivity", "setting": "x2 = 0.015", "value": 0.0004, "unit": "S/m"},
      {"measurement": "speed of sound", "setting": "x2 = 0.015", "value": 1522.1, "unit": "m/s"},
      {"measurement": "viscosity", "setting": "x2 = 0.015", "value": 16.6, "unit": "mPa·s"},
      {"measurement": "electrical conductivity", "setting": "x2 = 0.0341", "value": 0.0004, "unit": "S/m"},
      {"measurement": "speed of sound", "setting": "x2 = 0.0341", "value": 1524.3, "unit": "m/s"},
      {"measurement": "viscosity", "setting": "x2 = 0.0341", "value": 15.2, "unit": "mPa·s"},
      {"measurement": "electrical conductivity", "setting": "x2 = 0.0417", "value": 0.0004, "unit": "S/m"},
      {"measurement": "speed of sound", "setting": "x2 = 0.0417", "value": 1525.3, "unit": "m/s"},
      {"measurement": "viscosity", "setting": "x2 = 0.0417", "value": 14.7, "unit": "mPa·s"},
      {"measurement": "electrical conductivity", "setting": "x2 = 0.0546", "value": 0.0004, "unit": "S/m"},
      {"measurement": "speed of sound", "setting": "x2 = 0.0546", "value": 1526.8, "unit": "m/s"},
      {"measurement": "viscosity", "setting": "x2 = 0.0546", "value": 13.8, "unit": "mPa·s"}
    ]},
    {"smiles": "CCCC(=O)[O-].OCC[NH2+]c1ccccc1", "note": "+ O", "values": [
      {"measurement": "electrical conductivity", "setting": "x2 = 0.016", "value": 0.0005, "unit": "S/m"},
      {"measurement": "speed of sound", "setting": "x2 = 0.016", "value": 1508.9, "unit": "m/s"},
      {"measurement": "viscosity", "setting": "x2 = 0.016", "value": 18.1, "unit": "mPa·s"},
      {"measurement": "electrical conductivity", "setting": "x2 = 0.0386", "value": 0.0005, "unit": "S/m"},
      {"measurement": "speed of sound", "setting": "x2 = 0.0386", "value": 1509.4, "unit": "m/s"},
      {"measurement": "viscosity", "setting": "x2 = 0.0386", "value": 16.9, "unit": "mPa·s"},
      {"measurement": "electrical conductivity", "setting": "x2 = 0.0546", "value": 0.0005, "unit": "S/m"},
      {"measurement": "speed of sound", "setting": "x2 = 0.0546", "value": 1509.8, "unit": "m/s"},
      {"measurement": "viscosity", "setting": "x2 = 0.0546", "value": 16.3, "unit": "mPa·s"},
      {"measurement": "electrical conductivity", "setting": "x2 = 0.0724", "value": 0.0005, "unit": "S/m"},
      {"measurement": "speed of sound", "setting": "x2 = 0.0724", "value": 1510.4, "unit": "m/s"},
      {"measurement": "viscosity", "setting": "x2 = 0.0724", "value": 15.4, "unit": "mPa·s"}
    ]}
  ]
}
